Two compounds from article PMC5829162, “Rational Design, Synthesis and Biological Evaluation of Pyrimidine-4,6-diamine derivatives as Type-II inhibitors of FLT3 Selective Against c-KIT” (Scientific Reports, 2018) can be followed below.

SMILES strings stand for the structures.

In one test the target is T1, FLT3 kinase (Homo sapiens, UniProt P36888).
T1 construct: purchased Invitrogen
T1 sequence (P36888 27-993): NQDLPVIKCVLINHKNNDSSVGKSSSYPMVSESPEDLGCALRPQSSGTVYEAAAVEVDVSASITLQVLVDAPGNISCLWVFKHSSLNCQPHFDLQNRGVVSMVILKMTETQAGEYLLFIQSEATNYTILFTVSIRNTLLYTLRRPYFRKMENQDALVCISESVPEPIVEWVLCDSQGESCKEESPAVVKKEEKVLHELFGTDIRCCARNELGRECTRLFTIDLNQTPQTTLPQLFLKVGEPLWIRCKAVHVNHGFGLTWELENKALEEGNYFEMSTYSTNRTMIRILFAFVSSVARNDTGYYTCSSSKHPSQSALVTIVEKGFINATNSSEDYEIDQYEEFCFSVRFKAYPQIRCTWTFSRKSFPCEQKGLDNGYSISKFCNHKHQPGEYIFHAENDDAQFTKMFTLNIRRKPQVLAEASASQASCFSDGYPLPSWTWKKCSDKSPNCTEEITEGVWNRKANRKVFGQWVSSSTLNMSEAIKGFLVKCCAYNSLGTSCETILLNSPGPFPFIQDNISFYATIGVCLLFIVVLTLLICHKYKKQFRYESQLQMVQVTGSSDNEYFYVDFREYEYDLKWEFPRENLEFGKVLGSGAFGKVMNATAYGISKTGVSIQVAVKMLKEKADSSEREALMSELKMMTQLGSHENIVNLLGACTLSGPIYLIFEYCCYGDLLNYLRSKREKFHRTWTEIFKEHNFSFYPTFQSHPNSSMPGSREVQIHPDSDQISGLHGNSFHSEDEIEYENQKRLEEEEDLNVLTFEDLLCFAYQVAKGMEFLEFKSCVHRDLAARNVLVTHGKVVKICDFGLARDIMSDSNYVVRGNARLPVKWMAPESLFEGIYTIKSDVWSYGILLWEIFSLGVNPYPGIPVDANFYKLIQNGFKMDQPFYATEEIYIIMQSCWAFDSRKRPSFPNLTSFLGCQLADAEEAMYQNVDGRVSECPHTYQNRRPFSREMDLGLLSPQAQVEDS
Briefly: Biochemical enzyme inhibition assay (microfluidics, Caliper EZ Reader II), FLT3. The conditions noted are these: for IC50: in vitro kinase assay, 60 min pre-incubation, ATP 190 µM, three independent experiments, read-out: FLT3 IC50 (nM) ± SD; for LE: ligand efficiency for FLT3 inhibition.

A further test concerns MV4–11 AML cells. Briefly: Cell proliferation (CellTiter-Glo, 48 h), MV4-11. In kind it is cell-based. The conditions noted are these: Homo sapiens; MV4–11, 48 hours. The source says: (§1) Stable BaF3 populations expressing activated FLT3 were generated by retroviral spinfection with the appropriate mutated plasmid followed by selection and growth factor withdrawal as previously described. The BaF3 cell line was originally obtained from the laboratory of Charles Sawyers and has not been authenticated. MV411 and Molm14 cells were obtained from the laboratory of Scott Kogan and authenticated by Promega STR analysis in June 2013. All cell lines were mycoplasma-free. Cells were incubated with compounds for 48 hours and proliferation was assessed using CellTiter-Glo (Promega; Madison, WI) according to the manufacturer’s recommendation on a SpectraMax M3 microplate reader using SpectraMax Software (Molecular Devices; Sunnyvale, CA). All cell viability data shown is reflective of experiments performed a minimum of three times. […]
(§2) S13. Cell Cultures: Stable BaF3 populations expressing activated FLT3 were generated by retroviral spinfection with the appropriate mutated plasmid followed by selection and growth factor withdrawal as previously described .4 The BaF3 cell line was originally obtained from the laboratory of Charles Sawyers and has not been authenticated. MV411 and Molm14 cells were obtained from the laboratory of Scott Kogan and authenticated by Promega STR analysis in June
(§3) 2013. All cell lines were mycoplasma -free. Cells were incubated with compounds for 48 hours and proliferation was assessed using CellTiter -Glo (Promega; Madison, WI) according to the manufacturer’s recommendation on a SpectraMax M3 microplate reader using SpectraMax Software (Molecular Devices; Sunnyvale, CA). All cell viability data shown is reflective of experiments performed a minimum of three times.

A further test addresses RET (Homo sapiens, UniProt P07949). In words: Biochemical kinase selectivity assay, RET. The conditions noted are these: in vitro kinase assay; read-out: RET IC50 (nM) ± SD.
For the next test, the system named is Molm14^D835Y. Briefly: Cell proliferation (CellTiter-Glo, 48 h), Molm14 D835Y. It is filed as cell-based. The conditions noted are these: for GI50: Homo sapiens, MOLM-14, Molm14^D835Y, 48 hours.
Description: as §1, §2, §3

RET, sequence (P07949 29-1114, species assumed): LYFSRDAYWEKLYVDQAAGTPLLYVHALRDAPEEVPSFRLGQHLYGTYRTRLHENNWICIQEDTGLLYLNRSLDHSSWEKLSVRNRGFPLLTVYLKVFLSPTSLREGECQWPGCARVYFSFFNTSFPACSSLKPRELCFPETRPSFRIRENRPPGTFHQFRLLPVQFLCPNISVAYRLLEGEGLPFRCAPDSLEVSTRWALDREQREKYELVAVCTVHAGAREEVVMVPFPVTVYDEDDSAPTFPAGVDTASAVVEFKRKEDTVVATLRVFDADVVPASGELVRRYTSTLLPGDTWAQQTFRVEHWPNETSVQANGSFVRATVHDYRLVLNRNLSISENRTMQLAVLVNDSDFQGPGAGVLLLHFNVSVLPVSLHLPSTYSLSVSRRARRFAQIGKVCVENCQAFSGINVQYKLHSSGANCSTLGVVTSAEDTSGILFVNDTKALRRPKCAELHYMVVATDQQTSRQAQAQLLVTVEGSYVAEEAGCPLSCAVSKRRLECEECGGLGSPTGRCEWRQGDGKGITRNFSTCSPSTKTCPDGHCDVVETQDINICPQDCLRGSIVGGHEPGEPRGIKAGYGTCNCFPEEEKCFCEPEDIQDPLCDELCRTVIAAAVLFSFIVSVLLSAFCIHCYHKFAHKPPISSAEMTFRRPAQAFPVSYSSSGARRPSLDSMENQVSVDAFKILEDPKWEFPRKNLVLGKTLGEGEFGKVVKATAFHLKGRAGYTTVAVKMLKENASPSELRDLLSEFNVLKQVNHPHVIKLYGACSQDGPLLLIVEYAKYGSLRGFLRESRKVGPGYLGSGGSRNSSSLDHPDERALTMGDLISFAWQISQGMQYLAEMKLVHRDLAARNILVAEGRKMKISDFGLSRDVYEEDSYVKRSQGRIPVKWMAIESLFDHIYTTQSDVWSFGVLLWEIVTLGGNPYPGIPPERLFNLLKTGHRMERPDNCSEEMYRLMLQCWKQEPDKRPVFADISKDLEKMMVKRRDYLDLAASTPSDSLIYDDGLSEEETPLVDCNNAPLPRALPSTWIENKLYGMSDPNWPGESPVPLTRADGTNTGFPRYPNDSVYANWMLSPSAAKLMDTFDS

Turning to `CC(C)(C)c1cc(NC(=O)Cc2ccc(Nc3cc(Nc4ccc(S(C)(=O)=O)cc4)ncn3)cc2)no1` [13k, 2-(4-(6-(4-(Methylsulfonyl)phenylamino)pyrimidin-4-ylamino)phenyl)-N-(5-tert-butylisoxazol-3-yl)acetamide], the “fold less active than 13a on FLT3” value at FLT3 kinase (enzymatic FLT3 IC50 compared with 13a) is ~ 5 fold. In addition, the half-maximal inhibitory concentration (IC50) on FLT3 kinase is 63 nM; on RET, 1660 nM. This compound also yielded an LE on FLT3 kinase of 0.27. The GI50 was 7.2 nM with MV4–11 AML cells and 2610 nM in the test with Molm14^D835Y.
Turning to `Cn1nc(C(C)(C)C)cc1NC(=O)Cc1ccc(Nc2cc(Nc3ccc(S(C)(=O)=O)cc3)ncn2)cc1` [13a, 2-(4-(6-(4-(Methylsulfonyl)phenylamino)pyrimidin-4-ylamino)phenyl)-N-(3-tert-butyl-1-methyl-1H-pyrazol-5-yl)acetamide], the “fold less inhibition on other closely related kinases versus FLT3” value at FLT3 kinase (enzymatic level) is more than 100 fold. The IC50 at FLT3 kinase amounted to 13.9 nM; on RET, 4710 ± 342 nM. Further, the LE on FLT3 kinase came out at 0.28. The GI50 came out at 9.9 nM with MV4–11 AML cells and 1840 nM in the test with Molm14^D835Y. Moreover, the “fold reduction in cellular activity against Molm14^D835Y” value in the test on Molm14^D835Y (relative to the parental FLT3-ITD cells) is on record as ~ 10 fold.
